# Source: patent US6239171A, “Tocotrienols and tocotrienol-like compounds and methods for their use” (Lipogenics, Inc., priority 1998, dated 2001)
# Columns and labels:
# [1] = target: T1, HMG-CoA reductase (Homo sapiens, UniProt P04035); test: HMG-CoA reductase activity in isolated chicken hepatocytes; type: cell-based
# T1 construct: hepatocytes isolated from livers of 8-week old female chickens; endogenous in cells; host or cells: primary chicken hepatocytes
# T1 sequence (P04035 1-888): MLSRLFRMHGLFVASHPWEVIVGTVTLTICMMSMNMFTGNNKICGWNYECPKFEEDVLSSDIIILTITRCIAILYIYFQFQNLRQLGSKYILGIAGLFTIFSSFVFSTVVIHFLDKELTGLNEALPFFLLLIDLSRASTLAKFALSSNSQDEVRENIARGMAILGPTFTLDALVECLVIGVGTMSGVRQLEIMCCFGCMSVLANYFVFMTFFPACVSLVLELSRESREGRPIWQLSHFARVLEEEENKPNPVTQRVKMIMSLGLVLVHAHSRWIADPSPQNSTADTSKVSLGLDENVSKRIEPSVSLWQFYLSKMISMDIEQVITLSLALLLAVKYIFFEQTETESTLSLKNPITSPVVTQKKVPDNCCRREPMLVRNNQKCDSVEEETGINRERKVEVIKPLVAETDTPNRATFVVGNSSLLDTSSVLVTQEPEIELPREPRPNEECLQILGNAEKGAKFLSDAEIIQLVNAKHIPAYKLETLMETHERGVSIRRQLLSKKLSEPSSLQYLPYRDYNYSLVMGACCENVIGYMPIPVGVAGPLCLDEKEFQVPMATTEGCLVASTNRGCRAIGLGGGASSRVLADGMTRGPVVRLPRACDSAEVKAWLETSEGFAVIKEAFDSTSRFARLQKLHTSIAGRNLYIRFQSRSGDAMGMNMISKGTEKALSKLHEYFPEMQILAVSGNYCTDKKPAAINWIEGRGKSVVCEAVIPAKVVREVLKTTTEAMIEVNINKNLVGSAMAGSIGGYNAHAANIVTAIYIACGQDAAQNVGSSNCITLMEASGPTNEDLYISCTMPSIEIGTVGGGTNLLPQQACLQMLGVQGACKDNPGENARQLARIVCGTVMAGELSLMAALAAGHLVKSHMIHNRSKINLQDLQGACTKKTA
# Procedure: (§1) This study measured the effects of three tocotrienols isolated from rice bran on cholesterol-related enzyme activity in hepatocytes isolated from livers of 8-week old female chickens. The chickens were fed the chick mash diet for 8 weeks. They were then fasted for 40 hours and finally refed for 48 hours before sacrifice. The hepatocytes were then prepared following standard methods.
# (§2) Each compound was isolated from TRF using the following protocol: A bond Elute amine column was equilibrated with 2 ml hexane. 10 mg of TRF (dissolved in 0.5 ml hexane) was bound to the amine column. The column was washed with 1 ml of hexane, then with 1 ml of 3% isopropanol in hexane. P-21 and P-25 were eluted off the column with 5% isopropanol in hexane. Then using 10% isopropanol in hexane, the impurity P-20 was eluted. α-tocotrienol was also tested.
# We next measured the effects of various tocotrienols and tocotrienol-like compounds isolated from rice bran on the activity of HMG-CoA reductase. 20.0 g of stabilized rice bran was extracted with 200.0 ml of methanol to remove various UV absorbing impurities and tocotrienols (6.7 mg total). This step was repeated four times. The remaining residue was dried under vacuum in a desiccator and then heated at 180° C. for 2 hours under 30 psi pressure. Then the dried residue was extracted again with 200.0 ml methanol (3.4 mg). […]
# [2] = target: T1, HMG-CoA reductase; test: Hepatic HMG-CoA reductase activity in chickens fed supplemented diets; type: in vivo, chicken; details: control diet + 50 ppm, 4 weeks
# Procedure: (§3) This example measured the effects of the TRF and its components on the hepatic enzymatic activity of HMG-CoA reductase and cholesterol 7α-hydroxylase. […] The amount of feed consumed ranged from 11.19-11.60 g per chicken and the feeding period was 4 weeks. The birds were fasted for a period of 36 hours and refed for 48 hours prior to sacrifice (at 0800 hours).
# [3] = system: chickens; test: Antibody titers to sheep red blood cells in chickens; type: in vivo, chicken; details: control diet + 50 ppm, 4 weeks, sheep red blood cells i.p.
# Procedure: The model for this study was 6-week old female white leghorn chickens. Each group of 12 chickens was fed an unsupplemented chicken diet or a control diet supplemented with 50 ppm of a tocotrienol or 100 ppm of a commercially available hypercholesterolemic agent (Geraniol or Lovastatin). […] The chickens were fed over a period of 4 weeks, then the blood was drawn. The antibody response was determined by injecting the chickens i.p. with 0.5 ml of a 5% suspension of sheep red blood cells (RBCs) in PBS (v/v) which were previously washed three times. […] Relative IgG levels were determined by using 2-mercaptoethanol preincubation for 30 min. The relative IgM levels were calculated by subtracting the IgG antibody levels from total antibody levels. All antibody levels are expressed as the log base 2 of the highest titer that was needed to hemagglutinate an equal volume of 0.5% RBC suspension.
# [4] = system: cholesterol 7α-hydroxylase; test: Cholesterol 7α-hydroxylase activity in isolated chicken hepatocytes; type: cell-based
# Procedure: as §1, §2
# [5] = system: cholesterol 7α-hydroxylase; test: Hepatic cholesterol 7α-hydroxylase activity in chickens fed supplemented diets; type: in vivo, chicken; details: control diet + 50 ppm, 4 weeks
# Procedure: as §3
# [6] = system: chickens; test: Plasma thromboxane B2 and platelet factor 4 in chickens fed supplemented diets; type: in vivo, chicken; details: control diet + 50 ppm, 4 weeks
# Source text: We next measured the effects of TRF and its components on serum levels of apolipoprotein (a)1, apolipoprotein B, triglycerides and glucose and the plasma levels of thromboxane B2 and platelet factor 4.
# [7] = target: T2, Fatty Acid Synthase (Gallus gallus, UniProt P12276); test: Fatty acid synthase activity in isolated chicken hepatocytes; type: cell-based
# T2 construct: hepatocytes isolated from livers of 8-week old female chickens; endogenous in cells; host or cells: primary chicken hepatocytes
# Procedure: as §1, §2
# [8] = system: chickens; test: Serum cholesterol, apolipoproteins, triglycerides and glucose in chickens fed supplemented diets; type: in vivo, chicken; details: control diet + 50 ppm, 4 weeks
# Source text: All assays conducted on chicken or swine serum were done following the protocols described in A. A. Qureshi et al., "Lowering Of Serum Cholesterol In Hypercholesterolemic Humans By Tocotrienols" (Palmvitee), Am. J. Clin. Nutr., 53, pp. 1021S-26S (1991). All enzymatic assays were done following the protocols described in A. A. Qureshi et al., "Effects of Cereals and Culture Filtrate of Trichoderma viride on Lipid Metabolism of Swine", Lipids, 17, pp. 924 (1982). Plasma insulin, glucagon and TNF levels were measured using radioinnumoassay kits from Ventrex Laboratories, Inc. (Portland, Me.), ICN Biomedicals, Inc. (Costa Mesa, Calif.) and Genzyme Corp. (Cambridge, Mass.), respectively. […]
# Each group of 6 chickens (6-week old female while leghorn) was administered the chick mash diet described in Example 5, supplemented with one of three different amounts of waxes (sterols), 50 ppm of TRF (prepared as in Example 2) or 5% equivalent of the methanol insoluble fraction Louisiana rice bran oil. […] The birds were fasted for a period of 14 hours prior to sacrifice (at 0800 hours). […]
# T2 sequence (P12276 2-2512 limits assumed): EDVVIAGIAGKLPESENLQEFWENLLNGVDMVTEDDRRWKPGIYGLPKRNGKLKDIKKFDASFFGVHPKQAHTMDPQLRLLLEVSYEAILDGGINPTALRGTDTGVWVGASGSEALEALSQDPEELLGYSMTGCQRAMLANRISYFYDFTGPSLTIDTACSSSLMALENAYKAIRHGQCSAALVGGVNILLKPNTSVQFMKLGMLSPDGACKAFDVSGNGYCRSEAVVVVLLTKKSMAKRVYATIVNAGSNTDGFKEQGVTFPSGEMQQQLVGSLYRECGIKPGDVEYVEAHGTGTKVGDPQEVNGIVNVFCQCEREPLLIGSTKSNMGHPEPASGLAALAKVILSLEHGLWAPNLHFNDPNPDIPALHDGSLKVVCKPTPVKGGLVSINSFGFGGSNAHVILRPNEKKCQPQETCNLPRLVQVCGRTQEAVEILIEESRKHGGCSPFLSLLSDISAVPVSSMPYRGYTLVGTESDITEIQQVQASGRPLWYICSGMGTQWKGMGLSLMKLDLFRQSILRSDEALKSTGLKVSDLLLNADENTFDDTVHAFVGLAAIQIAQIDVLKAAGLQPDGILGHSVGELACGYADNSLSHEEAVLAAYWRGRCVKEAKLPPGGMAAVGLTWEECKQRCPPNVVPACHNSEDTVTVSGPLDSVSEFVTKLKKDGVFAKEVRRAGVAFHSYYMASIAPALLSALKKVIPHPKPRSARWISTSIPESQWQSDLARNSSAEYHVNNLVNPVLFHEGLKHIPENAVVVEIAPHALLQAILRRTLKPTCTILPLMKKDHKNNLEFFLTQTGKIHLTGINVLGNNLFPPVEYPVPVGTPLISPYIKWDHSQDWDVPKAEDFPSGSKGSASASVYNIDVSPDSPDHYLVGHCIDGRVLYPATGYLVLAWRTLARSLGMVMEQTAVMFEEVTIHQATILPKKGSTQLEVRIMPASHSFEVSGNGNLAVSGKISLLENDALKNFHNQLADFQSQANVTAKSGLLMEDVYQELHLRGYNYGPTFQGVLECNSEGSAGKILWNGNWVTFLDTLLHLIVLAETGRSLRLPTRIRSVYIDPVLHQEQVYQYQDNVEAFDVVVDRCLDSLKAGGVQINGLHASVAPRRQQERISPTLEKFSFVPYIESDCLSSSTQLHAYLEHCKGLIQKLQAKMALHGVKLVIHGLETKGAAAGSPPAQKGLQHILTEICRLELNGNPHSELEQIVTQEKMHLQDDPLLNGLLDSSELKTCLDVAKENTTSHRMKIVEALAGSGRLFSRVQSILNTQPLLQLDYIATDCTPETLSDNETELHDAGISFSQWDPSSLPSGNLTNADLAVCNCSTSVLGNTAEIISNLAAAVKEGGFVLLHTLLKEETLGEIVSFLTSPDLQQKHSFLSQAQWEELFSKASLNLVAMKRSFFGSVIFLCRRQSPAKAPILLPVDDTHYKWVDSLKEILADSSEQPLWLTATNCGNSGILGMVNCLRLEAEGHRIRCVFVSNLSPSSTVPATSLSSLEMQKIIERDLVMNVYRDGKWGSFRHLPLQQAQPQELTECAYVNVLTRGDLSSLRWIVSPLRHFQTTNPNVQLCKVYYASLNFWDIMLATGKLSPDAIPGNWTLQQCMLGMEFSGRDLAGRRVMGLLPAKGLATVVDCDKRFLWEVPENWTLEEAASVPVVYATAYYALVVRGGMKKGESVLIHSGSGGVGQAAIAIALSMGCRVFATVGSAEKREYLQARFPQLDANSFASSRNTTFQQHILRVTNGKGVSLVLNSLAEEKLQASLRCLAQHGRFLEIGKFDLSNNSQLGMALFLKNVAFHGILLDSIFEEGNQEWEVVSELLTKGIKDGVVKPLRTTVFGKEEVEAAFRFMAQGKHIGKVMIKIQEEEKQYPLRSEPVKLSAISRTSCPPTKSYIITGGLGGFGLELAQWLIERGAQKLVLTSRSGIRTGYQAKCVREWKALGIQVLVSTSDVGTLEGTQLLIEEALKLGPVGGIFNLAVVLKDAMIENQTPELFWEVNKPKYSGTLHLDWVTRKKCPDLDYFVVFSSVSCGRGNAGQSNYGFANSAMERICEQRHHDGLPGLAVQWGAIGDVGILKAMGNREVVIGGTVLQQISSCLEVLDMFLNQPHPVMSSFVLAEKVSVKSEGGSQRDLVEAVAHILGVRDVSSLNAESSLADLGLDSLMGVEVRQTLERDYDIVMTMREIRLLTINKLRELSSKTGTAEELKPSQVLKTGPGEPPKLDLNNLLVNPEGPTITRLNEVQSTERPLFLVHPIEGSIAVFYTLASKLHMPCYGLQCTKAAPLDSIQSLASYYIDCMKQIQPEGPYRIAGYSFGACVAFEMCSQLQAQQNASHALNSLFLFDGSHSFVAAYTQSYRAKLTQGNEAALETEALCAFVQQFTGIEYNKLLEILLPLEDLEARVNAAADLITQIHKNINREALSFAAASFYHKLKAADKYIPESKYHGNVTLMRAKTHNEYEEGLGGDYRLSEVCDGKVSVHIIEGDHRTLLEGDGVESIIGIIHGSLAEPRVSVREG
smiles,measurement,setting,value
"CC(C)=CCC/C(C)=C/CC/C(C)=C/CC[C@]1(C)CCc2c(C)c(O)c(C)c(C)c2O1 [α-T3, α-tocotrienol]",maximum reduction in activity of HMG-CoA reductase,[1],37.7%
same,"HMG-CoA Reductase, percentage of control",[2],89.43%
same,IgG antibody titers in serum,[3],1.00 Log 2
same,IgM antibody titers in serum,[3],6.60 ± 1.24 Log 2
same,Total Ab titers in serum,[3],7.10 ± 1.51 Log 2
same,Cholesterol 7α-hydroxylase,[4]; 10.0 μg/mL,2.12 pmol/min/mg
same,"Cholesterol 7α-hydroxylase, percentage of 0.0 μg/mL",[4]; 10.0 μg/mL,91.8%
same,Cholesterol 7α-hydroxylase,[4]; 20.0 μg/mL,2.27 pmol/min/mg
same,"Cholesterol 7α-hydroxylase, percentage of 0.0 μg/mL",[4]; 20.0 μg/mL,98.7%
same,Cholesterol 7α-hydroxylase,[4]; 40.0 μg/mL,2.34 pmol/min/mg
same,"Cholesterol 7α-hydroxylase, percentage of 0.0 μg/mL",[4]; 40.0 μg/mL,101.3%
same,"Cholesterol 7α-Hydroxylase, percentage of control",[5],104.60%
same,Cholesterol 7α-hydroxylase,[5],10.69 nmol/min/mg
same,Platelet Factor 4,[6],8.78 ng/mL
same,"Platelet Factor 4, percentage of control",[6],67.07%
same,Thromboxane B2,[6],21.63 pg/mL
same,"Thromboxane B2, percentage of control",[6],83.71%
same,Fatty Acid Synthase,[7]; 10.0 μg/mL,15.2 nmol/min/mg
same,"Fatty Acid Synthase, percentage of 0.0 μg/mL",[7]; 10.0 μg/mL,88.4%
same,Fatty Acid Synthase,[7]; 20.0 μg/mL,14.3 nmol/min/mg
same,"Fatty Acid Synthase, percentage of 0.0 μg/mL",[7]; 20.0 μg/mL,83.2%
same,Fatty Acid Synthase,[7]; 40.0 μg/mL,12.4 nmol/min/mg
same,"Fatty Acid Synthase, percentage of 0.0 μg/mL",[7]; 40.0 μg/mL,72.1%
same,"APO A1, percentage of control",[8],99.43%
same,APO A1 in serum,[8],139.6 mg/100 ml
same,APO B in serum,[8],29.30 mg/100 ml
same,"APO B, percentage of control",[8],88.52%
same,DL-Cholesterol/Total Cholesterol,[8],0.61
same,"DL-Cholesterol/Total Cholesterol, percentage of control",[8],104.30%
same,Glucose in serum,[8],216.90 mg/100 ml
same,"Glucose, percentage of control",[8],96.70%
same,HDL-Cholesterol in serum,[8],80.47 ± 0.67 mg/dL
same,"HDL-Cholesterol, percentage of control",[8],96.19%
same,HDL-Cholesterol/LDL-Cholesterol,[8],2.09
same,"HDL-Cholesterol/LDL-Cholesterol, percentage of control",[8],110.40%
same,LDL-Cholesterol in serum,[8],47.97 ± 0.56 mg/dL
same,"LDL-Cholesterol, percentage of control",[8],87.12%
same,Total Cholesterol in serum,[8],131.71 ± 1.08 mg/dL
same,"Total Cholesterol, percentage of control",[8],92.25%
same,Triglycerides in serum,[8],68.04 mg/100 ml
same,"Triglycerides, percentage of control",[8],91.91%
"CC(C)=CCC/C(C)=C/CC/C(C)=C/CCC1(C)CCc2cc(O)cc(C)c2O1 (stereo not drawn) [δ-T3, δ-tocotrienol]","HMG-CoA Reductase, percentage of control",[2],75.83%
same,IgG antibody titers in serum,[3],1.00 Log 2
same,IgM antibody titers in serum,[3],8.25 ± 1.96 Log 2
same,Total Ab titers in serum,[3],8.67 ± 1.78 Log 2
same,"Cholesterol 7α-Hydroxylase, percentage of control",[5],107.44%
same,Cholesterol 7α-hydroxylase,[5],10.98 nmol/min/mg
same,Platelet Factor 4,[6],8.23 ng/mL
same,"Platelet Factor 4, percentage of control",[6],62.87%
same,Thromboxane B2,[6],18.65 pg/mL
same,"Thromboxane B2, percentage of control",[6],72.17%
same,"APO A1, percentage of control",[8],99.22%
same,APO A1 in serum,[8],139.30 mg/100 ml
same,APO B in serum,[8],27.30 mg/100 ml
same,"APO B, percentage of control",[8],82.48%
same,DL-Cholesterol/Total Cholesterol,[8],0.65
same,"DL-Cholesterol/Total Cholesterol, percentage of control",[8],111.30%
same,Glucose in serum,[8],205.30 mg/100 ml
same,"Glucose, percentage of control",[8],91.53%
same,HDL-Cholesterol in serum,[8],77.78 ± 0.97 mg/dL
same,"HDL-Cholesterol, percentage of control",[8],93.08%
same,HDL-Cholesterol/LDL-Cholesterol,[8],2.15
same,"HDL-Cholesterol/LDL-Cholesterol, percentage of control",[8],141.80%
same,LDL-Cholesterol in serum,[8],36.14 ± 0.97 mg/dL
same,"LDL-Cholesterol, percentage of control",[8],65.64%
same,Total Cholesterol in serum,[8],119.40 ± 1.41 mg/dL
same,"Total Cholesterol, percentage of control",[8],83.63%
same,Triglycerides in serum,[8],60.50 mg/100 ml
same,"Triglycerides, percentage of control",[8],81.72%
